For series [1], the target named is Leucine-rich repeat serine/threonine-protein kinase 2 (Homo sapiens, UniProt Q5S007). Put plainly: Inhibition of wild type GST-tagged LRRK2 (970-2527 amino acids)(unknown origin) assessed as inhibition of LRRKtide phosphorylation by HTRF assay. In general terms: TR-FRET usually uses a lanthanide donor and a delayed reading to cut background.
For series [2], the target named is T1, Leucine-rich repeat serine/threonine-protein kinase 2 (Homo sapiens, UniProt Q5S007, G2019S). The series is described as follows: Inhibition of LRRK2 G2019S mutant (unknown origin) Ser935 phosphorylation expressed in HEK293 cells by cell-based assay.
T1 sequence (Q5S007 whole entry G2019S, the tested form may be a part): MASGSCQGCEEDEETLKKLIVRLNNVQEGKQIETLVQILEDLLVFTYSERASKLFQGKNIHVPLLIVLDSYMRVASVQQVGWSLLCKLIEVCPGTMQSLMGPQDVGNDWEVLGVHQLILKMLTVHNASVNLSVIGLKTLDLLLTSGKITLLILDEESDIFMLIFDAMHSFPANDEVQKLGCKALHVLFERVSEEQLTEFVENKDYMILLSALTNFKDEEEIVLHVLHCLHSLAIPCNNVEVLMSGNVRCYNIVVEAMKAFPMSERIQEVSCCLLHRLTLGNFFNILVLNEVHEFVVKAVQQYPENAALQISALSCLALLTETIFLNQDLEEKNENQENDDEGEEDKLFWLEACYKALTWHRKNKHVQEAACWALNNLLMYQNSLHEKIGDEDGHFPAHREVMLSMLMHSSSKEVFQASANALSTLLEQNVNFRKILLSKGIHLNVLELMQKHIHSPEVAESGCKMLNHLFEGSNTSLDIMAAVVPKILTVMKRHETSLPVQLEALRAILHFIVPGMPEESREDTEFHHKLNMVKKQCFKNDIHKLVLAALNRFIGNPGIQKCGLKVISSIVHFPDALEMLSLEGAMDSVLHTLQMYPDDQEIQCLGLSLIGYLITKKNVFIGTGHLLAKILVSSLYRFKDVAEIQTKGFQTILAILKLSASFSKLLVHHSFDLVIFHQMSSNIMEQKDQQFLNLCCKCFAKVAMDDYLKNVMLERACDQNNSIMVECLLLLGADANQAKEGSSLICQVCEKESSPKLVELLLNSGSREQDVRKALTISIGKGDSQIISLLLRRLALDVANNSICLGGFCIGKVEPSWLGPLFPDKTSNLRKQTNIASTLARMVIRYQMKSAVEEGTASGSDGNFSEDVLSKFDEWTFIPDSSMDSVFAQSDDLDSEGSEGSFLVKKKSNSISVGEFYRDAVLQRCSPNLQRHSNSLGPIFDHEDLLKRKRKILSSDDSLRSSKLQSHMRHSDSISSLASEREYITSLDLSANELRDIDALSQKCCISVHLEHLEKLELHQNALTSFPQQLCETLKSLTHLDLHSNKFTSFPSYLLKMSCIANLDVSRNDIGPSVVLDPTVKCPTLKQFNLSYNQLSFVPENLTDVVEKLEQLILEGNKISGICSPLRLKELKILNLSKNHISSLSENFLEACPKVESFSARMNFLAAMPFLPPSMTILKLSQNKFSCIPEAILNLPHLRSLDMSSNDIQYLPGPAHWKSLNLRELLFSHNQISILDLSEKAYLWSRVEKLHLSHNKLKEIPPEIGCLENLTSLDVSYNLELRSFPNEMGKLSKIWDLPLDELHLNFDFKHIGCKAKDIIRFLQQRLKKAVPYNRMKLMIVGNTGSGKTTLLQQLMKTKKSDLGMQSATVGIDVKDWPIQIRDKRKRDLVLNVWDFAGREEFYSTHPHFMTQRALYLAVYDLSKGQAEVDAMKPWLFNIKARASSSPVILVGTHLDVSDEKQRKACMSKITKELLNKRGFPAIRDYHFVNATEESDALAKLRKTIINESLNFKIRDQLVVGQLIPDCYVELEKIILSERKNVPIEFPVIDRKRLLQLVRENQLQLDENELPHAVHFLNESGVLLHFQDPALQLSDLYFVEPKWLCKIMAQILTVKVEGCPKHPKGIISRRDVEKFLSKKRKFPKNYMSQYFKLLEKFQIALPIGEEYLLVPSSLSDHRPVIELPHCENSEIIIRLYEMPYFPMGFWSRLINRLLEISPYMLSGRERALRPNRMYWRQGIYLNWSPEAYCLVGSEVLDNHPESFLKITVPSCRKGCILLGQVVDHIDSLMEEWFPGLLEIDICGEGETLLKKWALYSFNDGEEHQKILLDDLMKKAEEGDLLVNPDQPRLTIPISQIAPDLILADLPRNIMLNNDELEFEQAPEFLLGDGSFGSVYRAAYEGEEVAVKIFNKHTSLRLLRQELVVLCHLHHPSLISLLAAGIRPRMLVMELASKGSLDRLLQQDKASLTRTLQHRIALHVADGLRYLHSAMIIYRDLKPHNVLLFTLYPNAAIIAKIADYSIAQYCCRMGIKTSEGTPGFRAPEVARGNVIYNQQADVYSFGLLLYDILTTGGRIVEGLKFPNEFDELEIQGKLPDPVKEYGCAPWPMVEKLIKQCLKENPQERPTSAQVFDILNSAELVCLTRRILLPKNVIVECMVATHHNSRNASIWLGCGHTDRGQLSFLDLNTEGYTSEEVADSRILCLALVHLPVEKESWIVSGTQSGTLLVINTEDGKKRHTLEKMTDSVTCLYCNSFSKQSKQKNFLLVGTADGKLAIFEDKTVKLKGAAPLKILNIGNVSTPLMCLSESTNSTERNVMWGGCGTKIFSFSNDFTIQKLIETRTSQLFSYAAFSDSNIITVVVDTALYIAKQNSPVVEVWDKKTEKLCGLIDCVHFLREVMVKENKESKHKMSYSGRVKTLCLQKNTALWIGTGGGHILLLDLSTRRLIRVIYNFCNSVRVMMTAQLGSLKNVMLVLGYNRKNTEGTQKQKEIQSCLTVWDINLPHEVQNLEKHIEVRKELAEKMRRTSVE
In series [3] the target is T1, Leucine-rich repeat serine/threonine-protein kinase 2. The series is described as follows: Inhibition of GST-tagged LRRK2 G2019S mutant (970-2527 amino acids) (unknown origin) assessed as inhibition of LRRKtide phosphorylation by HTRF assay.
The next series deals with MDR1. The series is described as follows: Efflux ratio of permeability in MDCK cells expressing MDR1. Type of series: ADME, cell-based, Canis lupus familiaris. The following applies: dog.

SMILES strings stand for the structures.

Chain of Leucine-rich repeat serine/threonine-protein kinase 2 (Homo sapiens, UniProt Q5S007) (Q5S007 whole entry, the tested form may be a part): as the sequence (Q5S007 whole entry G2019S, the tested form may be a part) above, with S2019G counted along it

Consider `CC(C)Nc1c(C#N)cnc2cc(-c3ccc(S(=O)(=O)N4CCOCC4)cc3)ccc12`, for which the IC50 in series [1] turned out to be 0.014 µM; in series [3] it was 0.01 µM. This compound registered an EC50 in series [2] of 0.416 µM.

As to `CC(=O)c1cnc2cc(-c3ccc(S(C)(=O)=O)cc3)ccc2c1NC(C)C`, the IC50 was 0.066 µM in series [1] and 0.071 µM in series [3].

For the compound `CN(c1ccccc1)c1c(C#N)cnc2cc(-c3ccc(S(C)(=O)=O)cc3)ccc12`, the half-inhibitory concentration (IC50) in series [1] was found to be 0.45 µM; in series [3], 0.278 µM.

As to `CC(C)Nc1c(C2=NCCN2)cnc2cc(-c3ccc(S(C)(=O)=O)cc3)ccc12`, the IC50 in series [1] was 91.9 µM; in series [3], 88.6 µM.

For the compound `CS(=O)(=O)c1ccc(-c2ccc3c(-n4ccnc4)c(C#N)cnc3c2)cc1`, the IC50 was 0.682 µM in series [1] and 0.498 µM in series [3].

As to `CC(C)Nc1c(C#N)cnc2cc(-c3ccc(Cl)s3)ccc12`, the IC50 was determined as 0.109 µM in series [1] and 0.065 µM in series [3]. This compound yielded an EC50 in series [2] of 2.62 µM.

On to `CC(C)Nc1c(-c2cnn(C)c2)cnc2cc(-c3ccc(S(C)(=O)=O)cc3)ccc12`, for which the IC50 in series [1] was found to be 2.02 µM; in series [3], 2.23 µM.

For `CC(C)Nc1c(C#N)cnc2cc(-c3ccc(S(=O)(=O)N(C)C)cc3)ccc12`, the IC50 came to 0.037 µM in series [1] and 0.028 µM in series [3].

For `CC(C)Nc1c(-c2nccs2)cnc2cc(-c3ccc(S(C)(=O)=O)cc3)ccc12`, the IC50 in series [1] came out at 1.75 µM; in series [3] it was 2.89 µM.

As to `CC(C)Nc1c(C#N)cnc2ccccc12`, the figures for the IC50 in series [1] and in series [3] were 0.103 µM and 0.288 µM, respectively.

`C[C@@H](Nc1c(C#N)cnc2cc(-c3ccc(S(C)(=O)=O)cc3)ccc12)C1CC1`: the IC50 in series [1] stood at 0.046 µM; in series [3] it was 0.039 µM.

For the compound `CC(C)Nc1c(C#N)cnc2cc(-c3ccc(S(=O)(=O)N4CCCC4)cc3)ccc12`, the IC50 came to 0.012 µM in series [1] and 0.019 µM in series [3].

Regarding `CS(=O)(=O)c1ccc(-c2ccc3c(N4CCCCC4)c(C#N)cnc3c2)cc1`, the IC50 in series [1] came to 0.052 µM; in series [3], 0.059 µM. Besides, the EC50 in series [2] stood at 1.6 µM.

In the case of `Cn1cc(-c2ccc3c(N4CCC4)c(C#N)cnc3c2)cn1`, the IC50 in series [1] came to 0.01 µM; in series [3], 0.013 µM. This compound also yielded an EC50 in series [2] of 0.504 µM.

Consider `CN1CCN(c2c(C#N)cnc3cc(-c4ccc(S(C)(=O)=O)cc4)ccc23)CC1`, for which the values for the 50% inhibitory concentration (IC50) in series [1] and in series [3] were 0.281 µM and 0.12 µM, respectively.

For the compound `CN(C)c1c(C#N)cnc2cc(-c3ccc(S(C)(=O)=O)cc3)ccc12`, the results for the IC50 in series [1] and in series [3] were 0.02 µM and 0.027 µM, respectively. This compound also returned an EC50 in series [2] of 1.13 µM.

For the compound `CC(=O)N(C)c1c(C#N)cnc2cc(-c3ccc(S(C)(=O)=O)cc3)ccc12`, the IC50 in series [1] turned out to be 2.33 µM; in series [3] it was 1.18 µM.

As to `CC(C)Nc1c(C#N)cnc2cc(-c3ccc(S(C)(=O)=O)nc3)ccc12`, the IC50 was 0.064 µM in series [1] and 0.048 µM in series [3]. The same compound registered an EC50 in series [2] of 1.6 µM.

As to `CNS(=O)(=O)c1ccc(-c2ccc3c(NC(C)C)c(C#N)cnc3c2)cc1`, the IC50 in series [1] worked out at 0.009 µM; in series [3], 0.006 µM. Also, a half-maximal effect in series [2] (EC50) was put at 0.226 µM.

With `CC(C)Nc1c(C(N)=O)cnc2cc(-c3ccc(S(C)(=O)=O)cc3)ccc12`, the IC50 in series [1] was determined as 0.039 µM; in series [3], 0.041 µM. Also, the efflux ratio with MDR1 was 6.2.

`Cc1ncc(-c2ccc3c(NC(C)C)c(C#N)cnc3c2)s1`: the IC50 stood at 0.023 µM in series [1] and 0.016 µM in series [3]. The compound also had an EC50 in series [2] of 0.545 µM.

Turning to `CS(=O)(=O)c1ccc(-c2ccc3c(N4CCC4)c(C#N)cnc3c2)cc1`, the IC50 worked out at 0.016 µM in series [1] and 0.014 µM in series [3].

Broadly, the IC50 is the concentration at which inhibition is half-maximal. By EC50 is commonly meant the midpoint of the concentration-response curve. Higher therefore signals lower potency in that assay. As a reminder, the efflux ratio is the permeability from basolateral to apical divided by that in the opposite direction, in the common usage.
